In article PMC9668832, “Increased slow dynamics defines ligandability of BTB domains” (Nature Communications, 2022) one finds Kd data, which are given here for 3 compounds.

The structures appear in SMILES notation.

The target of the assay is T1, MIZ1^BTB (Homo sapiens, UniProt Q13105).
T1 construct: gene ZBTB17; BTB domain, residues 1-115; N-terminal Trx-His6 tag cleaved with PreScission; E. coli BL21(DE3); 13C,15N-labelled; homodimer in solution
T1 sequence (Q13105 1-115): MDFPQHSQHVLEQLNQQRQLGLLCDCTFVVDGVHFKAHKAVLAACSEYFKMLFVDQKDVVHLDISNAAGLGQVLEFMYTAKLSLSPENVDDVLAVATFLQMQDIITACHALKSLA
Put plainly: 1H-15N HSQC NMR titration. Format: binding.
On to `Nc1ccc(-n2cnc(Cl)c2Cl)cc1` [2GG4], for which the Kd (as a rule, the constant that tells how readily two partners part at equilibrium) turned out to be 68 ± 9 µM.

In turn, `OC1(c2ccc(Cl)c(C(F)(F)F)c2)CCNCC1` [4CC2] had a Kd of 425 ± 59 µM.

Compound `Cc1nc2ccc(Cl)cc2nc1C` [5DD7] showed a Kd of 870 ± 140 µM.
